“Also recorded” adds a separate entry of the source. Where two headings read alike, the source gives them in different places. Where a SMILES comes first, the peptide text is derived from it. The star is where a group is joined. Cbz = O=C(OCc1ccccc1)*
Columns and labels:
[1] = tested on: C2-ceramide treated C2C12 cell line; assay: In vitro sarcopenia model (Example 1): myotube phenotype and MyH3 immunofluorescence; format: cell-based, mouse; conditions: for MyH3 intensity compared to the control group: mean brightness of MyH3 staining, Fig. 5B
Experimental: (§1) The C2C12 cells (C2C12 mouse C3H muscle myoblast purchased from Sigma) were maintained in modified Eagle's medium (DMEM) with 10 % fetal bovine serum (FBS) and 1 % penicillin/streptomycin (P/S) solution in a humidified incubator with 5 % CO2 at 37 °C. 40 µM C2-ceramide was used for developing an in vitro model of sarcopenia in the C2C12 cell line, i.e., in vitro sarcopenia model. One day after 300×10^3 cells were seeded per well in a 6-well plate, N-acetyl-D-sphingosine (C2-ceramide) and the drug candidates (dissolved in DMSO) were administered in the maintenance condition (DMEM with 10 % FBS and 1 % P/S) for two days. Then, the medium was changed twice, at two-day intervals, with a differentiation medium (DMEM with 2% FBS and 1% P/S) with drug candidates to differentiate myoblasts into myotubes. Furthermore, siRNAs for Anxa2 and Clmp and overexpression plasmids for Cyc1 and Sdhb were transfected into the cells to examine the effect of the target proteins on the in vitro sarcopenia model. Cell viability was measured spectrophotometrically by Cell Counting kit-8. The expression level of target proteins (ANXA2, CLMP, Cyc1, and SDHB), myogenic markers (MyoG and MyH3) and α-Tubulin (internal control) were detected using Western blots. All experiments were performed with 3 replicates.
The cells were, once again, washed 3 times in PBS and then permeabilized in 0.1 % TritonX-100 for 15 min at room temperature. The cells were then incubated for 1 h in 2 % bovine serum albumin (BSA) solution followed by overnight incubation in anti-Myosin/MyH3 diluted in 0.1 % BSA at 4 °C. Primary antibody solution was washed away with PBS, then incubated in fluorescent dye-labelled secondary antibody diluted in 0.1 % BSA for 45 min at room temperature protected from light. Finally, the samples were washed 3 times with 1xPBS-T and mounted with DAPI mount putted cover glass on the cells.
The cell brightness was measured by ImageJ software (NIH). For each experiment condition, three different areas were photographed with same area size (5038848 by ImageJ), the mean brightness of each image was obtained for statistical analysis. The t test was used to check the statistical differences between any two experiment conditions.

C2C12 myoblasts = assay: Differentiation of C2C12 myoblasts to myotubes under drug treatment, without ceramide; format: cell-based, mouse; conditions: for ability to facilitate myotube differentiation without the presence of ceramide: C2C12 cells not treated with C2-ceramide, Fig. 15
Experimental: The C2C12 cells (C2C12 mouse C3H muscle myoblast purchased from Sigma) were maintained in modified Eagle's medium (DMEM) with 10 % fetal bovine serum (FBS) and 1 % penicillin/streptomycin (P/S) solution in a humidified incubator with 5 % CO2 at 37 °C. […] […] Then, the medium was changed twice, at two-day intervals, with a differentiation medium (DMEM with 2% FBS and 1% P/S) with drug candidates to differentiate myoblasts into myotubes. […] Cell viability was measured spectrophotometrically by Cell Counting kit-8. The expression level of target proteins (ANXA2, CLMP, Cyc1, and SDHB), myogenic markers (MyoG and MyH3) and α-Tubulin (internal control) were detected using Western blots. All experiments were performed with 3 replicates.

[2] = tested on: C2-ceramide treated C2C12 cell line; assay: In vitro sarcopenia model (Example 1): Western blot of target proteins and myogenic markers; format: cell-based, mouse
Experimental: as §1
The cells were washed with PBS and lysed with CelLytic M (C2978, Sigma-Aldrich) lysis buffer containing protease inhibitors. The cell lysates were centrifuged at 12 000 rpm for 5 min and supernatants were collected. A protein assay solution (Bio-Rad) was used for the determination of protein concentration. The absorbance of the proteins was measured spectrophotometrically at 595 nm by microplate reader (Hidex Sense Beta Plus). Protein electrophoresis was performed using Mini-PROTEAN® TGXTM Precast Gels (Bio-Rad) and the separated proteins were transferred to a Trans-Blot Turbo Mini 0.2 um PVDF Transfer Packs membrane (Bio-Rad) by using Trans-Blot® TurboTM Transfer System (Bio-Rad). The membrane was blocked with 5 % skim milk for 30 min at 4 °C with gentle rocking. It was immunoblotted with primary antibodies against MyH3, MyoG, ANXA2, CLMP, Cyc1, and SDHB, as well as α-Tubulin, as an internal control, overnight at 4 °C with gentle rocking. Goat anti-Rabbit HRP or goat anti-mouse IgG-HRP was used as secondary antibody. Reaction with secondary antibody proceeded for 30 min at 4 °C with gentle rocking.

[3] = tested on: C2-ceramide treated C2C12 cell line; assay: In vitro sarcopenia model (Example 2): Western blot of target genes and myogenic markers; format: cell-based, mouse
Description: C2-ceramide ([…], Sigma Aldrich) was used for inducing sarcopenia in the C2C12 cell line. […] Then, the medium was changed twice, at two-day intervals, with a differentiation medium (DMEM with 2% FBS and 1% P/S) to differentiate myoblasts into myotubes. Because C2-ceramide may affect mitochondrial activity in muscle cells, another cell model was created without introducing ceramide. After completion of myotube differentiation, cells were harvested for western blot analysis. […] The cell lysates were centrifuged at 12.000 rpm for 10 min and supernatants were collected. Protein Assay Dye Reagent (5000006, Bio-Rad) was used for the determination of protein concentration. The absorbance of the proteins was measured spectrophotometrically at 595 nm by a microplate reader (Hidex Sense Beta Plus). […] The membrane was blocked with 5 % skim milk for 30 min at 4 °C with gentle rocking. After blocking, the membrane was treated with primary antibodies: anti-AGL (ab133720, Abcam, UK) anti-PDHX (HPA038484, Human Protein Atlas, Sweden), anti-Myogenin (ab124800, Abcam), anti-Myosin/MyH3 (ab124205, Abcam), anti-Beta actin (ab8227, Abam) as a loading control overnight at 4 °C on a rocking platform. After the treatment of primary antibodies, the membrane was washed three times with TBS-T buffer ([…]-7500-100, Medicago). Then, Goat anti-Rabbit IgG-HRP (ab205718, Abcam) was treated as the secondary antibody for 30 min at 4 °C with gentle rocking.

[4] = Cell viability assay (MTT); conditions: mouse, c2c12 cells
Experimental: The effects of the drugs on the C2C12 cell viability were tested by MTT (Thiazolyl Blue Tetrazolium Bromide) assay. 1×10^4 cells were seeded per well in a 96-well plate in 100 µL growth media. After one day of cell seeding, the cells were treated with different concentrations of the drugs dissolved in 0.1 % DMSO and 100 µL of the media for one day. After the treatment period, 5 mg/ml MTT (M2128, Sigma-Aldrich) solution in PBS (10 µL) was added to each well. After one hour, the MTT solution and all media were removed from the wells. 100 µl of DMSO was added and mixed to dissolve the formazan crystals. Cell viability was analysed by measuring the absorbance of the dissolved formazan at a wavelength of 570 nm with a microplate reader (Hidex Sense Beta Plus).

ubiquitinated proteins = conditions: mice, Sakai et al. [39]; cited from earlier work
[5] = 40 µM ceramide plus drug candidate at selected concentration
[6] = selected non-toxic concentration of drug candidate, Fig. 11
[7] = 5 µM, in vitro sarcopenia model
[8] = drug plus ceramide (sarcopenic cells), concentration not given
[9] = 2.5 µM, in vitro sarcopenia model
[10] = 20 µM, in vitro sarcopenia model
[11] = 40 µM ceramide alone versus control, 4 days of differentiation

CCCCCCCCCC(=O)NC(CN1CCOCC1)C(O)c1ccccc1 (racemic) [DL-PDMP]
effect on myotubes (phenotypic change) [1, 5]: Only treatment with withaferin-A improved the myotubes | differentiation of myoblasts to myotubes (C2C12 myoblasts; [6]): highly differentiated

OCCCNc1cc(-c2ccnc(Nc3cccc(Cl)c3)n2)ccn1 [CGP-60474]
effect on myotubes (phenotypic change) [1, 5]: Only treatment with withaferin-A improved the myotubes | differentiation of myoblasts to myotubes (C2C12 myoblasts; [6]): highly differentiated

Nc1[nH]nc2nnc(-c3c(-c4ccccc4)nn4ccccc34)cc12 [FR-180204]
effect on myotubes (phenotypic change) [1, 5]: promising effect in enhancing myotube cells | ability to facilitate myotube differentiation without the presence of ceramide (C2C12 myoblasts): exhibited the ability to facilitate myotube differentiation | ability to improve the myotube fusion in healthy muscle myoblasts (C2C12 myoblasts): ability to improve the myotube fusion | Cyc1 expression [2, 7]: significantly increased | MyH3 expression [2, 7]: significantly increased | MyoG expression [2, 7]: significantly increased | expression level of CYC1 [2, 8]: significantly increase | expression level of MyH3 [2, 8]: significantly increase | expression level of MyoG [2, 8]: significantly increase

CC(C)C[C@@H](C=O)NC(=O)[C@H](CC(C)C)NC(=O)[C@H](CC(C)C)NC(=O)OCc1ccccc1 [MG-132] (Cbz-Leu-Leu-Leu-aldehyde)
expression levels of MyH3 ([3]; sarcopenic cells): significantly increase | expression levels of MyoG ([3]; sarcopenic cells): significantly increase | expression of myogenic markers ([3]; sarcopenic cells, compared to the in vitro sarcopenia model): increased | expression of AGL ([3]; selected non-toxic optimal dose, in vitro sarcopenia model): enhanced; also recorded: significantly increase | MNTC at 24 h [4]: 25 nM | expression levels of ubiquitinated proteins in atrophic muscle cells (ubiquitinated proteins): downregulation

Cc1ccc(CNc2ncnc3ccc(-c4ccc(CO)o4)cc23)o1 [ML-167]
effect on myotubes (phenotypic change) [1, 5]: promising effect in enhancing myotube cells | ability to facilitate myotube differentiation without the presence of ceramide (C2C12 myoblasts): exhibited the ability to facilitate myotube differentiation | ability to improve the myotube fusion in healthy muscle myoblasts (C2C12 myoblasts): ability to improve the myotube fusion | Cyc1 expression [2, 9]: notable upregulation | MyH3 expression [2, 9]: notable upregulation | MyoG expression [2, 9]: notable upregulation | Cyc1 expression [2, 7]: notable upregulation | MyH3 expression [2, 7]: notable upregulation | MyoG expression [2, 7]: notable upregulation | expression level of CYC1 [2, 8]: significantly increase | expression level of MyH3 [2, 8]: significantly increase | expression level of MyoG [2, 8]: significantly increase

O=C1c2c(O)ccc(O)c2C(=O)c2c(NCCNCCO)ccc(NCCNCCO)c21 [Mitoxantrone]
differentiation of myoblasts to myotubes (C2C12 myoblasts; [6]): less differentiated

Cc1ccc([N+](=O)[O-])cc1S(=O)(=O)N(C)/N=C/c1cnc2ccc(Br)cn12 [PIK-75]
effect on myotubes (phenotypic change) [1, 5]: Only treatment with withaferin-A improved the myotubes | differentiation of myoblasts to myotubes (C2C12 myoblasts; [6]): highly differentiated

CC1=C(CO)C(=O)OC(C(C)C2CCC3C4CC5OC56C(O)C=CC(=O)C6(C)C4CCC23C)C1 (centres unmarked) [Withaferin-A, withaferin-A]
effect on myotubes (phenotypic change) [1, 5]: improved the myotubes similarly to the control sample | MyH3 intensity compared to the control group [1]: no statistical difference | MNTC at 24 h [4]: 50 nM | differentiation of myoblasts to myotubes (C2C12 myoblasts; [6]): highly differentiated | expression level of CYC1 [2, 8]: activating effect | expression level of MyH3 [2, 8]: increase; also recorded: expressed as much as control samples | expression level of MyoG [2, 8]: increase | expression level of ANXA2 ([2]; drug plus ceramide, concentration not given): inhibitory effect; also recorded: decreased

COC[C@H]1OC(=O)c2coc3c2[C@@]1(C)C1=C(C3=O)[C@@H]2CCC(=O)[C@@]2(C)C[C@H]1OC(C)=O [Wortmannin]
effect on myotubes (phenotypic change) [1]: Only treatment with withaferin-A improved the myotubes | differentiation of myoblasts to myotubes (C2C12 myoblasts): moderately differentiated

CN(C)CCOC(c1ccc(Cl)cc1)c1ccccn1 (centres unmarked) [carbinoxamine]
effect on myotubes (phenotypic change) [1, 5]: promising effect in enhancing myotube cells | CYC1 expression [2, 10]: large improvement | MyH3 expression [2, 10]: increase | MyoG expression [2, 10]: increase | expression level of CYC1 [2, 8]: increase | expression level of MyH3 [2, 8]: increase | expression level of MyoG [2, 8]: increase

CCCCCCCCCCCCC/C=C/[C@@H](O)[C@H](CO)NC(C)=O [ceramide, N-acetyl-D-sphingosine]
myotube formation ([1]; 40 µM ceramide alone, after 4 days of differentiation): less myotubes were formed | MyH3 intensity compared to the control group [1]: significantly deceased; also recorded: significantly decreased | expression level of MyH3 [2, 11]: decreased | expression level of MyoG [2, 11]: decreased | expression level of ANXA2 ([2]; ceramide alone versus control): increased

CC(C)(Oc1ccc(Cl)cc1)C(=O)O [clofibric-acid, clofibric acid]
MNTC at 24 h [4]: 5000 nM

CC(=O)c1c(C)c2cnc(Nc3ccc(N4CCNCC4)cn3)nc2n(C2CCCC2)c1=O [palbociclib]
MNTC at 24 h [4]: 5000 nM

Cc1c(C)c2c(c(C)c1O)CCC(C)(COc1ccc(CC3SC(=O)NC3=O)cc1)O2 (centres unmarked) [troglitazone]
MNTC at 24 h [4]: 500 nM

Source: patent EP4616854A1, “TREATMENT OF MUSCLE SARCOPENIA” (Molius Saglik Teknolojileri Anonim Sirketi, priority 2024, dated 2025)
